The conditions of data set [1]: cited from earlier work.
A further data set addresses plasmin (Homo sapiens, UniProt P00747). The data set is described as follows: in vitro. As to conditions: isolated enzyme plasmin.
Data set [2] in a line: Renal biomarkers or electrolyte imbalance after administration to rats (Table 7). It counts as in vivo. The procedure:
NoNO42 was tested for effect on various renal biomarkers or electrolyte imbalance in comparison with nerinetide after administration to rats as shown in Table 7.

The conditions of data set [3]: rat, in vivo; for Weight: iv.
For data set [4] the following is noted: rat, in vivo.
Procedure: Blood plasma samples were collected before injection and at 10, 15, 20, 30, 45, 60 min post-dose. Each point represents the mean (±SD) of three animals per group.
Data set [5] in a line: Plasmin sensitivity: peptides in PBS challenged with 10 ug/ml plasmin, HPLC. The note with it: isolated enzyme plasmin.

These results are taken from US20240301003A1 (NoNO Inc., priority 2021, published 2024).

Read-outs that look alike come from different tables or passages of the source. Where a SMILES comes first, the peptide text is derived from it.

Sequence of plasmin (P00747 581-810 limits assumed, species assumed): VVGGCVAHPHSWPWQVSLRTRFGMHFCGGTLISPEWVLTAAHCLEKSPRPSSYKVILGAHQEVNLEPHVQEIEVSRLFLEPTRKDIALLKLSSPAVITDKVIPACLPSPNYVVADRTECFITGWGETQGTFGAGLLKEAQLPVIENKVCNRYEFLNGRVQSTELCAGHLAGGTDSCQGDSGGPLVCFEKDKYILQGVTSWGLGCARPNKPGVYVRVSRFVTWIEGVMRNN
Sequence of plasmin (P00747 97-580 partner limits assumed, species assumed): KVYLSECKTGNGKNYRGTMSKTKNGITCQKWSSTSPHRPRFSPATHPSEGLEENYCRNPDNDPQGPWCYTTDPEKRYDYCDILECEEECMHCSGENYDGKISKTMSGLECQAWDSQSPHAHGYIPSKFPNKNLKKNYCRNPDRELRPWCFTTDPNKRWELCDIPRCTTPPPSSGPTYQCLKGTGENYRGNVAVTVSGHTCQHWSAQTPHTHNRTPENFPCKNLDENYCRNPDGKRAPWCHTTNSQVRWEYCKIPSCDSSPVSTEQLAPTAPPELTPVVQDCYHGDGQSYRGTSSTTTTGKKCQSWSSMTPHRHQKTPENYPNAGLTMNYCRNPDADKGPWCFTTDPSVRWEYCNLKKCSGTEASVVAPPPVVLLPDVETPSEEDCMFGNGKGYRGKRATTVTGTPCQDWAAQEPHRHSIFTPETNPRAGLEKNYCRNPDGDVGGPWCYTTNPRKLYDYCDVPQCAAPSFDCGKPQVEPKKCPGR

As to `N[C@@H](Cc1ccc(O)c(O)c1)C(=O)O` [Levodopa], in data set [1], the half-life was 1.5 h.
As to `CC[C@H](C)[C@H](NC(=O)[C@H](CO)NC(=O)[C@H](CO)NC(=O)[C@H](CC(C)C)NC(=O)[C@@H](CCCCN)NC(=O)[C@H](CCCNC(=N)N)NC(=O)[C@H](CCCNC(=N)N)NC(=O)[C@@H](CCCNC(=N)N)NC(=O)[C@H](CCC(N)=O)NC(=O)[C@@H](CCCNC(=N)N)NC(=O)[C@H](CCCNC(=N)N)NC(=O)[C@H](CCCCN)NC(=O)[C@H](CCCCN)NC(=O)[C@@H](CCCNC(=N)N)NC(=O)CNC(=O)[C@@H](N)Cc1ccc(O)cc1)C(=O)N[C@@H](CCC(=O)O)C(=O)N[C@@H](CO)C(=O)N[C@@H](CC(=O)O)C(=O)N[C@H](C(=O)O)C(C)C` [NoNO42] (HELM PEPTIDE1{Y.G.[dR].K.K.R.[dR].Q.[dR].R.R.[dK].L.S.S.I.E.S.D.V}$$$$V2.0; N-terminus and C-terminus assumed), at plasmin, the share remaining at 0.5 h, 65 ug/ml is approximately 100%. Further, the “renal biomarkers or electrolyte imbalance in comparison with nerinetide” value in data set [2] (rat, in vivo) is “No significant difference was observed”. Further, the Creatinine in data set [2] (rat, in vivo, iv, 3.8 mg/kg) is 0.2 mg/dL; in data set [2] (rat, in vivo, iv, 7.6 mg/kg) it was 0.2 mg/dL. Moreover, the iCa was 1.47 mmol/L in data set [2] (rat, in vivo, iv, 5.7 mg/kg); 1.43 mmol/L in data set [2] (rats, IV 3.8 mg/kg, Pre); 1.46 mmol/L in data set [2] (rats, IV 5.7 mg/kg, Day 14); 1.46 mmol/L in data set [2] (rats, IV 5.7 mg/kg, Pre); 1.46 mmol/L in data set [2] (rats, IV 7.6 mg/kg, Day 4). In addition, the tCO2 in data set [2] (rat, in vivo, iv, 7.6 mg/kg) turned out to be 33.7 mmol/L; in data set [2] (rats, IV 7.6 mg/kg, Day 4) it was 35.7 mmol/L; in data set [2] (rats, IV 7.6 mg/kg, Day 14) it was 35.7 mmol/L. The “Na+” value in data set [2] (rats, IV 3.8 mg/kg, Day 4) was 137.3 mmol/L; in data set [2] (rats, IV 5.7 mg/kg, Day 4) it was 137.3 mmol/L; in data set [2] (rats, IV 7.6 mg/kg, Day 14) it was 137.3 mmol/L. In addition, the Cl stood at 98.3 mmol/L in data set [2] (rats, IV 3.8 mg/kg, Pre) and 98.3 mmol/L in data set [2] (rats, IV 7.6 mg/kg, Day 14). Further, the Hgb in data set [2] (rats, IV 7.6 mg/kg, Day 14) was found to be 13.4 g/dL. Also, the “weight gain compared with nerinetide” value in data set [3] is on record as “No significant difference was seen”. For the same molecule, the values for the Weight in data set [3] (3.8 mg/kg), in data set [3] (5.7 mg/kg) and in data set [3] (7.6 mg/kg) were 342.3 grams, 341.7 grams and 331.0 grams, respectively. Further, the “CMax of NoNO42 5.7 mg/kg versus nerinetide 7.6 mg/kg” value in data set [4] was “same CMax”.
Take `CC[C@H](C)[C@H](NC(=O)[C@H](CO)NC(=O)[C@H](CO)NC(=O)[C@H](CC(C)C)NC(=O)[C@H](CCCCN)NC(=O)[C@H](CCCNC(=N)N)NC(=O)[C@@H](CCCNC(=N)N)NC(=O)[C@H](CCCNC(=N)N)NC(=O)[C@H](CCC(N)=O)NC(=O)[C@@H](CCCNC(=N)N)NC(=O)[C@H](CCCNC(=N)N)NC(=O)[C@H](CCCCN)NC(=O)[C@@H](CCCCN)NC(=O)[C@H](CCCNC(=N)N)NC(=O)CNC(=O)[C@@H](N)Cc1ccc(O)cc1)C(=O)N[C@@H](CCC(=O)O)C(=O)N[C@@H](CO)C(=O)N[C@@H](CC(=O)O)C(=O)N[C@H](C(=O)O)C(C)C` [NA-4.4.3] (HELM PEPTIDE1{Y.G.R.[dK].K.R.[dR].Q.R.[dR].R.K.L.S.S.I.E.S.D.V}$$$$V2.0; N-terminus and C-terminus assumed): in data set [5], the fraction remaining at 0.5 h, 65 ug/ml is more than 85%.

By half-life is commonly meant how long it takes for the measured level to halve. The share remaining is what is left of the initial amount, in per cent.
